In patent publication US12502410B2, “Preservation of pancreatic islet grafts in the extrahepatic space” (The Regents of the University of California, priority 2017, dated 2025):

Columns and labels:
eBC = eBC viability in nutrient deprived and/or hypoxic culture, PI staining and flow cytometry; format: cell-based, human; details: 24 hours; for beta cell survival: nutrient deprived and/or hypoxic; for preservation of insulin-producing cells after stress: nutrient deprived or hypoxic
Protocol: (§1) SCIPC cultured for 24 hours in nutrient deprived and/or hypoxic conditions with or without GABA, PTH, and PTHrP At the end of the experiment, islet viability was measured using PI staining followed by flow cytometry. FIG. 11B depicts the effect of GABA, PTH and PTHrP on preserving insulin-producing cells after stress. FIG. 11C depicts quantification of viability of eBC cultured for 24 hours in nutrient deprived or hypoxic conditions with or without GABA, PTH, and PTHrP. […] Quantification of viability of cBC cultured for 24 hours in nutrient deprived and/or hypoxic conditions with or without leptin or serotonin. Islet viability measured using PI staining followed by flow cytometry.
(§2) In order to understand whether cell survival is due to secreted pro-survival or pro-angiogenic molecules, known PTG-released molecules were added to SCIPC and eBC cultures in vitro. While PTH is the main PTG-secreted hormone, previous publications also show GABA production within the PTG. GABA and PTH improve beta cell survival in nutrient deprived and/or hypoxic environment in vitro (FIG. 11A).

human islets = experiment: Amino acid supplementation, viability of high density culture (PI staining); format: cell-based; details: 1000 islets/mL, RPMI+5% serum
Text: (§3) FIG. 15A, FIG. 15B, and FIG. 15C depict the effect of nutrient supplementation on islet cell death in vitro. The effects of cell survival by supplementation of amino acids on mouse islets (FIG. 15A), human islets (FIG. 15B), and SCIPC (FIG. 15C) cultured in low or high density conditions (mouse=1000 islets/mL, human=1000 islets/mL, SCIPC=3000 clusters/mL) in RPMI+5% serum with addition of glucose. GLN: glutamine, TRP: tryptophan. Cell viability is quantified using PI staining via flow cytometry. Data shown are a summary of 3 independent experiments.
(§4) Various insulin-producing cells cultured in low (nutrient replete; mouse=200 islets/mL, human=200 islets/mL, SCIPC=200 clusters/mL) or high density conditions (nutrient limiting; mouse=1000 islets/mL, human=1000 islets/mL, SCIPC=3000 clusters/mL) in RPMI+5% serum with addition of glucose.

mouse islets = experiment: as above; format: cell-based; details: 1000 islets/mL, RPMI+5% serum
Text: as §3, §4

SCIPC [1] = experiment: as above; format: cell-based, human; details: 3000 clusters/mL, RPMI+5% serum
Text: as §3, §4

SCIPC [2] = experiment: SCIPC viability in nutrient deprived and/or hypoxic culture, PI staining and flow cytometry; format: cell-based, human; details: for preservation of insulin-producing cells after stress: SCIPC; for beta cell / SCIPC survival: nutrient deprived and/or hypoxic environment, 24 hours
Protocol: as §1, §2

Row | Molecule | preservation of insulin-producing cells after stress (SCIPC [2]) | beta cell / SCIPC survival (SCIPC [2]) | preservation of insulin-producing cells after stress (eBC) | also measured
1 | leptin |  |  |  | beta cell survival (eBC): preserves beta cell survival
2 | N[C@@H](Cc1c[nH]c2ccccc12)C(=O)O [tryptophan] |  |  |  | viability under nutrient-limiting condition (human islets): preserved viability; viability under nutrient-limiting condition (mouse islets): preserved viability; viability under nutrient-limiting condition (SCIPC [1]): preserved viability
3 | NCCCC(=O)O [GABA] | preferentially preserve | improve | preferentially preserve | 
4 | NC(=O)CC[C@H](N)C(=O)O [glutamine] |  |  |  | viability under nutrient-limiting condition (human islets): preserved viability; viability under nutrient-limiting condition (mouse islets): preserved viability; viability under nutrient-limiting condition (SCIPC [1]): preserved viability
5 | parathyroid hormone-related protein [PTHrP] | preferentially preserve | preserve SCIPC survival | preferentially preserve | 
6 | NCCc1c[nH]c2ccc(O)cc12 [serotonin] |  |  |  | beta cell survival (eBC): preserves beta cell survival
7 | parathyroid hormone (protein, UniProt P01270 32-115, looked up, Parathyroid hormone, main PTG-secreted hormone added to cultures) Parathyroid hormone: SVSEIQLMHNLGKHLNSMERVEWLRKKLQDVHNFVALGAPLAPRDAGSQRPRKKEDNVLVESHEKSLGEADKADVNVLTKAKSQ | preferentially preserve | improve | preferentially preserve | 
